# Assay results reported in ChEMBL document CHEMBL3808392, “Design, synthesis and biological evaluation of 5-fluorouracil-derived benzimidazoles as novel type of potential antimicrobial agents” (2016).
# Key:
# Staphylococcus aureus [1] = assay: Antimicrobial activity against methicillin-resistant Staphylococcus aureus N315 after 24 hrs by microbroth dilution method; assay type: functional; details: N315, 24 h
# Escherichia coli [2] = assay: Antimicrobial activity against Escherichia coli DH52 after 24 hrs by microbroth dilution method; assay type: functional; details: DH52, 24 h
# Aspergillus flavus = assay: Antimicrobial activity against Aspergillus flavus ATCC 204304 after 24 hrs by microbroth dilution method; assay type: functional; details: ATCC 204304, 24 h
# Staphylococcus aureus [3] = assay: Antimicrobial activity against Staphylococcus aureus ATCC 25923 after 24 hrs by microbroth dilution method; assay type: functional; details: ATCC 25923, 24 h
# Escherichia coli [4] = assay: Antimicrobial activity against Escherichia coli JM109 after 24 hrs by microbroth dilution method; assay type: functional; details: JM109, 24 h
# Bacillus spizizenii = assay: Antimicrobial activity against Bacillus subtilis ATCC 6633 after 24 hrs by microbroth dilution method; assay type: functional; details: ATCC 6633, 24 h
# Saccharomyces cerevisiae = assay: Antimicrobial activity against Saccharomyces cerevisiae after 24 hrs by microbroth dilution method; assay type: functional
# [5] = Antimicrobial activity against Bacillus proteus ATCC 13315 after 24 hrs by microbroth dilution method; assay type: functional; details: ATCC 13315, 24 h
# Micrococcus luteus = assay: Antimicrobial activity against Micrococcus luteus ATCC 4698 after 24 hrs by microbroth dilution method; assay type: functional; details: ATCC 4698, 24 h
# Salmonella typhi = assay: Antimicrobial activity against Bacillus typhi after 24 hrs by microbroth dilution method; assay type: functional, Salmonella enterica subsp. enterica serovar Typhi; details: Salmonella enterica
# Candida = assay: Antimicrobial activity against Candida mycoderma ATCC 9888 after 24 hrs by microbroth dilution method; assay type: functional; details: ATCC 9888, 24 h
# Candida albicans = assay: Antimicrobial activity against Candida albicans ATCC 10231 after 24 hrs by microbroth dilution method; assay type: functional; details: ATCC 10231, 24 h
Structure (SMILES),MIC (Staphylococcus aureus [1]) [µg/mL],MIC (Escherichia coli [2]) [µg/mL],MIC (Aspergillus flavus) [µg/mL],MIC (Staphylococcus aureus [3]) [µg/mL],MIC (Escherichia coli [4]) [µg/mL],MIC (Bacillus spizizenii) [µg/mL],MIC (Saccharomyces cerevisiae) [µg/mL],MIC [5] [µg/mL],MIC (Micrococcus luteus) [µg/mL],MIC (Salmonella typhi) [µg/mL],MIC (Candida) [µg/mL],MIC (Candida albicans) [µg/mL]
CCn1c(=O)c(F)cn(Cc2nc3ccccc3n2CC)c1=O,64,32,64,32,16,32,32,32,32,64,32,64
CCCn1c(=O)c(F)cn(Cc2nc3ccccc3n2CCC)c1=O,64,32,64,32,16,64,128,128,32,64,32,64
O=c1[nH]c(=O)n(Cc2nc3ccccc3[nH]2)cc1F,128,64,128,128,32,64,64,16,64,32,64,32
COc1ccc(Cn2c(=O)c(F)cn(Cc3nc4ccccc4n3Cc3ccc(OC)cc3)c2=O)cc1,32,128,32,128,16,64,64,32,64,64,512,64
O=c1c(F)cn(Cc2nc3ccccc3n2Cc2ccccc2)c(=O)n1Cc1ccccc1,> 512,> 512,64,> 512,> 512,64,> 512,> 512,128,128,128,128
CCCCCCCCCCCCn1c(=O)c(F)cn(Cc2nc3ccccc3n2CCCCCCCCCCCC)c1=O,> 512,512,512,> 512,256,512,> 512,512,512,512,32,256
CCCCCCCCn1c(=O)c(F)cn(Cc2nc3ccccc3n2CCCCCCCC)c1=O,> 512,512,512,> 512,512,512,> 512,> 512,512,512,512,64
CCCCCn1c(=O)c(F)cn(Cc2nc3ccccc3n2CCCCC)c1=O,16,512,> 512,16,16,512,8,8,32,512,8,> 512
O=c1c(F)cn(Cc2nc3ccccc3n2Cc2ccc(F)cc2)c(=O)n1Cc1ccc(F)cc1,512,> 512,512,> 512,> 512,> 512,> 512,> 512,> 512,512,> 512,> 512
O=c1[nH]c(=O)n(Cc2nc3cc(F)ccc3[nH]2)cc1F,16,32,128,8,128,128,8,16,16,32,128,2
O=c1c(F)cn(Cc2nc3ccccc3n2Cc2ccc(Cl)cc2)c(=O)n1Cc1ccc(Cl)cc1,> 512,> 512,> 512,> 512,> 512,> 512,> 512,> 512,> 512,512,> 512,4
O=c1c(F)cn(Cc2nc3ccccc3n2Cc2ccccc2Cl)c(=O)n1Cc1ccccc1Cl,> 512,> 512,512,> 512,> 512,> 512,> 512,> 512,> 512,512,512,512
CCn1cc(C(=O)O)c(=O)c2cc(F)c(N3CCNCC3)cc21 [NORFLOXACIN],8,1,,2,1,4,,8,2,4,,
O=c1c(F)cn(Cc2nc3ccccc3n2Cc2cccc(Cl)c2)c(=O)n1Cc1cccc(Cl)c1,128,16,64,512,128,64,64,64,128,64,64,64
OC(Cn1cncn1)(Cn1cncn1)c1ccc(F)cc1F [FLUCONAZOLE],,,256,,,,16,,,,4,1
Cc1ccc(Cn2c(=O)c(F)cn(Cc3nc4ccccc4n3Cc3ccc(C)cc3)c2=O)cc1,> 512,128,> 512,> 512,> 512,> 512,> 512,> 512,> 512,512,> 512,> 512
O=c1c(F)cn(Cc2nc3ccccc3n2Cc2ccccc2F)c(=O)n1Cc1ccccc1F,512,128,> 512,16,128,128,128,512,512,512,512,> 512
CCCCCCCCn1c(Cn2cc(F)c(=O)[nH]c2=O)nc2ccccc21,512,64,32,512,256,512,32,512,512,512,64,32
O=c1c(F)cn(Cc2nc3ccccc3n2Cc2ccc([N+](=O)[O-])cc2)c(=O)n1Cc1ccc([N+](=O)[O-])cc1,> 512,> 512,> 512,> 512,> 512,32,> 512,> 512,> 512,32,> 512,> 512
CCCCCCCCCCCCn1c(Cn2cc(F)c(=O)[nH]c2=O)nc2ccccc21,> 512,> 512,> 512,> 512,> 512,> 512,64,> 512,> 512,> 512,512,> 512
